These results are taken from ChEMBL document CHEMBL3414518, “Development of selective DprE1 inhibitors: Design, synthesis, crystal structure and antitubercular activity of benzothiazolylpyrimidine-5-carboxamides” (Eur J Med Chem, 2015).

The nature of series [1]: Elimination half life in Sprague-Dawley rat at 10 mg/kg, iv. It counts as ADME, organism-based. Also on record: dose 10 mg/kg, route intravenous. The note with it: in vivo, read-out: beta t1/2 (converted).
Series [2] in a line: Tmax in Sprague-Dawley rat at 20 mg/kg, po. In kind it is ADME, organism-based. Also on record: dose 20 mg/kg, route oral. The settings on record: in vivo.
Series [3] is described as follows: Elimination half life in Sprague-Dawley rat at 20 mg/kg, po. The note with it: in vivo, read-out: beta t1/2 (converted). In kind it is ADME, organism-based. Details: dose 20 mg/kg, route oral.
The nature of series [4]: Inhibition of Mycobacterium tuberculosis DprE1 using beta-D-ribofuranose as substrate after 7 mins by UV-Visible spectroscopy.
Series [5] in a line: Cmax in Sprague-Dawley rat at 20 mg/kg, po. It counts as ADME, organism-based. Also on record: dose 20 mg/kg, route oral. The settings on record: in vivo.
For series [6], the system named is Mycobacterium tuberculosis. In words: Antitubercular activity against Mycobacterium tuberculosis H37Rv ATCC 27294 after 5 days by broth microdilution method. The note with it: H37Rv ATCC 27294, 120 h. It counts as functional.
The nature of series [7]: Cmax in Sprague-Dawley rat at 10 mg/kg, iv. It counts as ADME, organism-based. Details: dose 10 mg/kg, route intravenous. The note with it: in vivo.
Series [8] in a line: Oral bioavailability in Sprague-Dawley rat at 20 mg/kg. It counts as ADME, organism-based. The note with it: in vivo.
A short description of series [9]: Partition coefficient, log P of the compound in PBS at 10 mM at pH 7.4 after 5 hrs by shake flask method. It counts as physicochemical.
Series [10] is described as follows: AUC (0 to infinity) in Sprague-Dawley rat at 10 mg/kg, iv. In kind it is ADME, organism-based. Also on record: time infinity, dose 10 mg/kg, route intravenous. The note with it: plasma.
Series [11] is described as follows: AUC (0 to infinity) in Sprague-Dawley rat at 20 mg/kg, po. In kind it is ADME, organism-based. Details: time infinity, dose 20 mg/kg, route oral. The settings on record: plasma.

In brackets after ≈: the same amount, converted by molar mass.

Usually Tmax stands for the time at which the peak concentration occurs. As a reminder, the IC50 is the midpoint of a concentration-inhibition curve. The Cmax is the highest concentration seen after dosing. One may read the MIC as the least concentration at which growth counts as inhibited. The low end stands for a more susceptible organism, the high end for a less susceptible organism. Broadly, the bioavailability is the share of a dose that reaches the circulation, judged against a reference dose that is usually intravenous. What is called logD is the decadic logarithm of the distribution of all forms, ionised or not, between an organic phase and buffer at a given pH. The term AUC(0-inf) denotes total exposure, with the tail of the curve extrapolated. `CC1=C(C(=O)Nc2nc3ccccc3s2)C(c2ccc(C(F)(F)F)cc2)NC(=S)N1` (stereo not given): the half-life in series [1] is 156 min; in series [3], 360 min. Moreover, in series [2], the Tmax was found to be 36 min. Besides, the IC50 in series [4] was 11.1 µM. Moreover, the Cmax in [5] amounted to 490 ng/mL; in [7] it was 1730 ng/mL. In addition, inhibition of growth in series [6] (MIC) required 0.09 µM (≈ 0.0404 µg/mL). In series [8], this compound had a bioavailability of 50.6%. The same compound yielded a logD at 5 h in series [9] of 2.92. Further, the AUC(0-inf) was 1640 ng·h/mL in series [10] and 830 ng·h/mL in series [11].
In turn, `CC1=C(C(=O)Nc2nc3ccccc3s2)C(c2ccc(Cl)cc2Cl)NC(=S)N1` (stereo not given) registered an MIC in series [6] of 0.25 µM (≈ 0.112 µg/mL).
For `COc1ccccc1C1NC(=S)NC(C)=C1C(=O)Nc1nc2ccccc2s1` (stereo not given), the MIC in series [6] came out at 0.5 µM (≈ 0.205 µg/mL).
On to `CC1=C(C(=O)Nc2nc3ccccc3s2)C(c2ccc(Cl)cc2)NC(=S)N1` (stereo not given), for which the MIC in [6] was 0.32 µM (≈ 0.133 µg/mL).
With `COc1cc(C2NC(=S)NC(C)=C2C(=O)Nc2nc3ccccc3s2)cc(OC)c1O` (stereo not given), the MIC in series [6] stood at 1.2 µM (≈ 0.548 µg/mL).
Regarding `CC1=C(C(=O)Nc2nc3ccccc3s2)C(c2cccc([N+](=O)[O-])c2)NC(=S)N1` (stereo not given), it took 1.3 µM (≈ 0.553 µg/mL) to inhibit growth in series [6] (MIC).
In series [6], `CC1=C(C(=O)Nc2nc3ccccc3s2)C(c2ccccc2[N+](=O)[O-])NC(=S)N1` (stereo not given) had an MIC of 1.2 µM (≈ 0.511 µg/mL).
In the case of `CC1=C(C(=O)Nc2nc3ccccc3s2)C(c2ccc(F)cc2)NC(=S)N1` (stereo not given), the values for the half-life in series [1] and in [3] were 168 min and 348 min, respectively. The Tmax in [2] came out at 36 min. For the same compound, the IC50 in series [4] came out at 9.2 µM. Besides, the Cmax in [5] worked out at 340 ng/mL; in series [7] it was 1500 ng/mL. This compound had an MIC in series [6] of 0.09 µM (≈ 0.0359 µg/mL). Further, in series [8], the bioavailability was determined as 51.9%. In [9], this compound registered a logD at 5 h of 2.18. Besides, the AUC(0-inf) in series [10] stood at 1530 ng·h/mL; in series [11] it was 810 ng·h/mL.
Regarding `COc1ccc(C2NC(=S)NC(C)=C2C(=O)Nc2nc3ccccc3s2)cc1` (stereo not given), in series [6], inhibition of growth (MIC) required 0.5 µM (≈ 0.205 µg/mL).
With `COc1cccc(C2NC(=S)NC(C)=C2C(=O)Nc2nc3ccccc3s2)c1O` (stereo not given), the MIC in series [6] was found to be 1.4 µM (≈ 0.597 µg/mL). This MIC lies about 2.8-fold higher than the previous one.
With `CC1=C(C(=O)Nc2nc3ccccc3s2)C(c2ccccc2Cl)NC(=S)N1` (stereo not given), the MIC in series [6] was determined as 0.32 µM (≈ 0.133 µg/mL). Compared with the last compound, the MIC is about 4.4-fold lower.
The same measure, in the same setting: the result for `CC1=C(C(=O)Nc2nc3ccccc3s2)C(c2ccc(Br)cc2)NC(=S)N1` (stereo not given) reads 0.4 µM (≈ 0.184 µg/mL).
On to `CC1=C(C(=O)Nc2nc3ccccc3s2)C(c2ccc(N(C)C)cc2)NC(=S)N1` (stereo not given), for which the values for the half-life in series [1] and in series [3] were 150 min and 84 min, respectively. The Tmax in series [2] amounted to 30 min. Further, the IC50 in series [4] is 10.3 µM. In addition, the Cmax in [5] came out at 410 ng/mL; in [7], 1620 ng/mL. Also, in series [6], the MIC stood at 0.08 µM (≈ 0.0339 µg/mL). In series [8], this compound registered a bioavailability of 52.7%. Also, in [9], the logD at 5 h was determined as 2.22. Moreover, the area under the curve AUC(0-inf) in [10] amounted to 1480 ng·h/mL; in [11], 780 ng·h/mL.
`CC1=C(C(=O)Nc2nc3ccccc3s2)C(c2ccc([N+](=O)[O-])cc2)NC(=S)N1` (stereo not given): the lowest concentration to inhibit growth in [6] (MIC) was 1.2 µM (≈ 0.511 µg/mL).
`NNC(=O)c1ccncc1` [ISONIAZID] displayed an MIC in series [6] of 0.2 µM (≈ 0.0274 µg/mL). This MIC is about 6-fold lower than that of the compound before.
`COc1ccc(C2NC(=S)NC(C)=C2C(=O)Nc2nc3ccccc3s2)cc1O` (stereo not given) had an MIC in series [6] of 1.2 µM (≈ 0.512 µg/mL).
Same read-out and setting: the result for `CC1=C(C(=O)Nc2nc3ccccc3s2)C(c2ccc(O)cc2)NC(=S)N1` (stereo not given) reads 2.4 µM (≈ 0.952 µg/mL).
`CC1=C(C(=O)Nc2nc3ccccc3s2)C(c2ccccc2O)NC(=S)N1` (stereo not given) yielded an MIC in series [6] of 2.4 µM (≈ 0.952 µg/mL).
With `CC1=C(C(=O)Nc2nc3ccccc3s2)C(c2ccccc2)NC(=S)N1` (stereo not given), the half-life in series [1] is 156 min; in series [3] it was 330 min. For the same compound, in series [2], the Tmax came out at 30 min. In series [4], inhibition was half-maximal at 7.7 µM (IC50). The results for the Cmax in [5] and in series [7] were 590 ng/mL and 1800 ng/mL, respectively. The compound also yielded an MIC in series [6] of 0.08 µM (≈ 0.0304 µg/mL). In [8], this compound showed a bioavailability of 52.7%. The same compound registered a logD at 5 h in series [9] of 2.03. Besides, the AUC(0-inf) in series [10] came to 1500 ng·h/mL; in series [11], 790 ng·h/mL.
Compound `COC(=O)c1ccc(C2NC(=S)NC(C)=C2C(=O)Nc2nc3ccccc3s2)cc1` (stereo not given) yielded a minimal inhibitory concentration (MIC) in series [6] of 3.1 µM (≈ 1.36 µg/mL).
